Experimental data as given in publication PMC2074590 (British Journal of Cancer, 1996).
Entries after “also recorded” stand apart in the source; their conditions may differ. Where two headings read alike, the source gives them in different places.

Assays:
[1] = test system: endometrial proliferation; design: method as in Dukes et al., 1993; conditions: primates, at serum concentrations similar to the present study; ref Dukes et al., 1993; cited from earlier work
[2] = Side-effects, local and systemic drug tolerability; type: in vivo, human
Protocol: (§1) Bridsh Journal of Cancer (1996) 74, 300-308 ? […] The agent was administered as a monthly depot intramuscular injection. […] The study was approved by the ethics committees of each clinical centre. Patients were eligible for the study if they were post- menopausal and age less than 81 years, with histologically verified breast cancer. […] Patients were excluded if they had serious intercurrent disease, a WHO performance status of greater than 2, and a life expectancy of less than 3 months or had received previous cytotoxic chemotherapy for advanced breast cancer. […] Patients 5-19 received 250 mg month-1 i.m. from the outset. […] Tumour response to therapy was evaluated according to UICC criteria (Hayward et al., 1977). To qualify for the 'no change' category, tumour growth had to stabilise for more than 6 months (Howell et al., 1988; Robertson et al., 1989). Body weight was recorded at each monthly review in the majority of patients. […] The procedure was applied after solid base clean up of a diethyl ether/hexane extract of serum. The study limit of quantification was 0.68 ng ml-'. […] Gonadotrophins follicle-stimulating hormone and lutenising hormone (FSH and LH) and SHBG were measured by RIA in the Regional Radioimmunoassay Laboratory of the University Hospital of South Manchester. Prolactin was measured by immunoradiometric assay using reagents supplied by Netria. Total cholesterol levels were determined enzymatically using a commercially available reagent (Diamed, Switzerland). Triglyceride levels were determined by the glyceryl phosphate oxidase-peroxidase-antiperox- idase method using a commercially available kit (Boehringer Mannheim, Germany). High-density lipoprotein (HDL) cholesterol levels were measured after pretreatment of the serum samples with buffered magnesium phosphotungstate, which selectively precipitates low-density lipoprotein (LDL) cholesterol, very low-density lipoprotein (VLDL) cholesterol and chylomicrons, leaving HDL cholesterol in the super- natant. Serum levels of LDL cholesterol were calculated using the Friedewald equation (Friedewald et al., 1972). Endometrial assessment Endometrial thickness was measured in transverse section by transabdominal ultrasound using a Siemens Sonoline SL2 with a 3.5 MHz sector probe. Baseline and repeat scans at 3-6 monthly intervals were performed in five patients. […] Pharmacokinectic data were analysed using para- metric statistics. Data relating to body weight, serum gonadotrophin, SHBG and lipid levels were analysed using non-parametric statistics. The null hypothesis was rejected at a probability level of P<0.05. […] However, samples were not available between day 2 and day 8.

[3] = test system: Ki67, ER, PgR, pS2 in primary breast cancer; conditions: short-acting propylene glycol-based formulation, daily i.m. for 1 week before surgery, ref DeFriend et al., 1994b, Nicholson et al.; cited from earlier work
[4] = test system: endometrial proliferation; design: method as in Thomas et al., 1993; conditions: short-term studies in women, at serum concentrations similar to the present study; ref Thomas et al., 1993; cited from earlier work
[5] = test system: serum FSH, LH, prolactin, SHBG; experiment: Serum FSH, LH, prolactin and SHBG before and during treatment; type: in vivo, human
Protocol: as §1

[6] = Body weight at monthly review; type: in vivo, human
Protocol: Bridsh Journal of Cancer (1996) 74, 300-308 ? […] The agent was administered as a monthly depot intramuscular injection. […] The study was approved by the ethics committees of each clinical centre. Patients were eligible for the study if they were post- menopausal and age less than 81 years, with histologically verified breast cancer. […] Patients were excluded if they had serious intercurrent disease, a WHO performance status of greater than 2, and a life expectancy of less than 3 months or had received previous cytotoxic chemotherapy for advanced breast cancer. […] Patients 5-19 received 250 mg month-1 i.m. from the outset. […] Tumour response to therapy was evaluated according to UICC criteria (Hayward et al., 1977). To qualify for the 'no change' category, tumour growth had to stabilise for more than 6 months (Howell et al., 1988; Robertson et al., 1989). Body weight was recorded at each monthly review in the majority of patients. […] The procedure was applied after solid base clean up of a diethyl ether/hexane extract of serum. The study limit of quantification was 0.68 ng ml-'. […] Gonadotrophins follicle-stimulating hormone and lutenising hormone (FSH and LH) and SHBG were measured by RIA in the Regional Radioimmunoassay Laboratory of the University Hospital of South Manchester. Prolactin was measured by immunoradiometric assay using reagents supplied by Netria. Total cholesterol levels were determined enzymatically using a commercially available reagent (Diamed, Switzerland). Triglyceride levels were determined by the glyceryl phosphate oxidase-peroxidase-antiperox- idase method using a commercially available kit (Boehringer Mannheim, Germany). High-density lipoprotein (HDL) cholesterol levels were measured after pretreatment of the serum samples with buffered magnesium phosphotungstate, which selectively precipitates low-density lipoprotein (LDL) cholesterol, very low-density lipoprotein (VLDL) cholesterol and chylomicrons, leaving HDL cholesterol in the super- natant. Serum levels of LDL cholesterol were calculated using the Friedewald equation (Friedewald et al., 1972). […]

[7] = test system: total cholesterol, LDL cholesterol, HDL cholesterol, triglyceride; experiment: Serum lipid levels during treatment; type: in vivo, human; conditions: 12 patients
Protocol: (§2) Bridsh Journal of Cancer (1996) 74, 300-308 ? […] The agent was administered as a monthly depot intramuscular injection. […] The study was approved by the ethics committees of each clinical centre. Patients were eligible for the study if they were post- menopausal and age less than 81 years, with histologically verified breast cancer. […] Patients were excluded if they had serious intercurrent disease, a WHO performance status of greater than 2, and a life expectancy of less than 3 months or had received previous cytotoxic chemotherapy for advanced breast cancer. […] Patients 5-19 received 250 mg month-1 i.m. from the outset. […] Tumour response to therapy was evaluated according to UICC criteria (Hayward et al., 1977). […] Body weight was recorded at each monthly review in the majority of patients. […] The study limit of quantification was 0.68 ng ml-'. […] Gonadotrophins follicle-stimulating hormone and lutenising hormone (FSH and LH) and SHBG were measured by RIA in the Regional Radioimmunoassay Laboratory of the University Hospital of South Manchester. Prolactin was measured by immunoradiometric assay using reagents supplied by Netria. Total cholesterol levels were determined enzymatically using a commercially available reagent (Diamed, Switzerland). […] Serum levels of LDL cholesterol were calculated using the Friedewald equation (Friedewald et al., 1972). […]

endometrium = experiment: Endometrial assessment (transabdominal ultrasound thickness, histology); type: in vivo, human
Protocol: as §2

[8] = test system: advanced breast cancer resistant to tamoxifen; experiment: Tumour response to therapy, UICC criteria; type: in vivo, human; design: key to Response to 182780: PD: progressive disease; NC: no change; PR: partial response
Protocol: as §1

C[C@]12CC[C@@H]3c4ccc(O)cc4C[C@@H](CCCCCCCCC[S+]([O-])CCCC(F)(F)C(F)(F)F)[C@H]3[C@@H]1CC[C@@H]2O (some centres unmarked) [ICI 182780, 7a-[9(4,4,5,5,pentafluoropentyl-sulphinyl)nonyl]oestra-1 ,3,5,(10)-triene-3,17,B-diol]
Effect on endometrial proliferation [1]: inhibited endometrial proliferation
Serious drug-related adverse events ([2]; 19 patients): No serious drug-related adverse events
Vaginal dryness or altered libido ([2]; direct questioning at each monthly attendance): None of the patients reported
Frequency of side-effects ([2]; in vivo): infrequent
Full blood count and biochemical profile ([2]; in vivo): No clinically significant changes
Hot flushes and night sweats ([2]; in vivo): not induced; also recorded: not associated with any alteration
Injection-site events: erythema ([2]; in vivo): a third patient had local erythema at the injection site on one occasion
Local tolerance at the site of injection ([2]; long-acting formulation, 5 ml i.m.): well tolerated locally
Patients reporting minor systemic adverse events ([2]; of 19 patients): two
Injection-site events: bruising, tenderness ([2]; one occasion each): One patient developed bruising over the buttock and a second developed tenderness at the injection site
Expression of ER, PgR and pS2 vs pretreatment samples [3]: reduced or absent expression
Tumour proliferation (Ki67 expression) vs pretreatment samples [3]: reduced proliferation
Effect on endometrial proliferation [4]: inhibited endometrial proliferation
Serum SHBG, median level ([5]; after 8 months of treatment, median pretreatment 100, P=NS): 55 nM
Serum LH, median post-treatment value ([5]; first 3 months of administration, median pre-treatment 26, P<0.005): 42 IU 1-1
Serum FSH, median post-treatment value ([5]; first 3 months of administration, median pre-treatment 26, P<0.05): 52 IU l-1
Change in serum SHBG ([5]; in vivo): no significant changes; also recorded: overall trend to decrease
Change in serum gonadotrophin levels after the first 3 months ([5]; in vivo): no further significant overall changes
Change in serum prolactin ([5]; throughout the treatment period): no significant changes; also recorded: did not change significantly
Mean body weight (s.d.) ([6]; after 10 months, n = 9): 64.5 ± 17.2 kg
Mean body weight (s.d.) ([6]; after 16 months, n=9): 64.2 ± 18.3 kg
Change in body weight during treatment ([6]; baseline mean 63.8 kg (n=13)): no significant changes
Change in serum lipids (total cholesterol, LDL cholesterol, HDL cholesterol, triglyceride) [7]: no significant changes
Endometrial histology (endometrium; one patient, hysterectomy after 18 months on treatment): atrophic post-menopausal pattern with cystic change
Endometrial thickness / effect on endometrium (endometrium; serial ultrasound in five responding patients, up to 15 months): no apparent effect; also recorded: remained unchanged
Median duration of response ([8]; 13 responding patients): 25 months
Partial response rate ([8]; 19 patients): 37%
Progression rate ([8]; 19 patients): 31%
Patients responding (partial response + no change) ([8]; 19 patients, after progression on tamoxifen): 69%
No change response rate ([8]; 19 patients, stabilisation for more than 6 months): 32%
Duration of response ([8]; NC patient with 61 months adjuvant tamoxifen (A61, = patient 15), from Table III): ≥ 23 months
Patients still in remission and continuing treatment ([8]; after 30-33 months): five
Association between duration of treatment with tamoxifen and subsequent response ([8]; in vivo): no association
Responses in women who progressed while receiving tamoxifen for advanced breast cancer ([8]; in vivo): six of the nine
Responses in women who relapsed after tamoxifen as adjuvant therapy ([8]; in vivo): seven of the ten
Number of patients with progression ([8]; of 19 patients): 6 patients
Response to 182780 ([8]; patient 1 (donor kappa)): PD
Duration of response ([8]; patient 1, PD): < 2 months
Response to 182780 ([8]; patient 2 (donor eta)): NC
Duration of response ([8]; patient 2, NC): 29 months
Response to 182780 ([8]; patient 3 (donor mu)): PR
Duration of response ([8]; patient 3, PR): 12 months
Response to 182780 ([8]; patient 4 (donor lambda)): PD
Duration of response ([8]; patient 4, PD): < 2 months
Response to 182780 ([8]; patient 5 (donor sigma)): PR
Duration of response ([8]; patient 5, PR): 8 months
Response to 182780 ([8]; patient 6 (donor delta)): PR
Duration of response ([8]; patient 6, PR): 3 months
Response to 182780 ([8]; patient 7 (donor gamma)): PD
Duration of response ([8]; patient 7, PD): < 2 months
Response to 182780 ([8]; patient 8 (donor theta)): PR
Duration of response ([8]; patient 8, PR): 25 months
Response to 182780 ([8]; patient 9 (NT)): PD
Duration of response ([8]; patient 9, PD): < 2 months
Response to 182780 ([8]; patient 10 (donor iota)): PR
Duration of response ([8]; patient 10, PR, + = continuing): ≥ 33 months
Response to 182780 ([8]; patient 11 (donor epsilon)): PD
Duration of response ([8]; patient 11, PD): < 2 months
Response to 182780 ([8]; patient 12 (donor nu)): NC
Duration of response ([8]; patient 12, NC, + = continuing): ≥ 33 months
Response to 182780 ([8]; patient 13 (donor tau)): PD
Duration of response ([8]; patient 13, PD): < 2 months
Response to 182780 ([8]; patient 14 (donor xi)): PR
Duration of response ([8]; patient 14, PR, + = continuing): ≥ 32 months
Response to 182780 ([8]; patient 15 (donor omicron)): NC
Response to 182780 ([8]; patient 16 (donor rho)): PR
Duration of response ([8]; patient 16, PR): 25 months
Response to 182780 ([8]; patient 17 (donor zeta)): NC
Duration of response ([8]; patient 17, NC): 9 months
Response to 182780 ([8]; patient 18 (donor beta)): NC
Duration of response ([8]; patient 18, NC, + = continuing): ≥ 30 months
Response to 182780 ([8]; patient 19 (donor pi)): NC
Duration of response ([8]; patient 19, NC, + = continuing): ≥ 30 months
Time to objective disease progression in unresponsive patients ([8]; six patients unresponsive de novo): ≤ 2 months
